For eight molecules, chromatographic logP, IC50 and melting point results are on record in US6878738B1, “Anti-inflammatory oxo derivatives and hydroxy derivatives of pyrrolizines, and their pharmaceutical use” (Merckle GmbH, priority 1999, dated 2005).

Series [1] is described as follows: Determination of the partition coefficient n-octanol/water (OECD Guideline No. 117). Format: physicochemical. The method, then: Determination of the Partition Coefficient
The partition coefficient P of the compounds was determined in the system n-octanol/water according to the OECD Guidline for Testing Chemicals, No. 117.

A further series concerns the target T1, Cyclooxygenase-1 (Homo sapiens, UniProt P23219).
T1 construct: endogenous in cells; host or cells: human platelets isolated over a Percoll gradient
The series can be described thus: Inhibition of cyclooxygenase-1: prostaglandin E2 formed from human platelets after calcium ionophore, ELISA. As to conditions: PGE2, read-out: IC50 COX-1. It is filed as cell-based. The method, then: Test System for Determination of the Inhibition of Cyclooxygenase-1
In this test system, the amount of prostaglandin E2 formed from human platelets after addition of calcium ionophore is determined by means of ELISA. In this process, the platelets are obtained after centrifugation over a discontinuous Percoll® gradient. The enzyme reaction and the determination of the metabolites formed is carried out in principle as in the determination of 5-lipoxygenase inhibition. Differences exist with respect to the incubation time. Furthermore, the addition of a thromboxane synthase inhibitor is necessary (see Arch. Pharm. Med. Chem. 330, 307-312 (1997)).

The target in the next series is T2, 5-lipoxygenase (Homo sapiens, UniProt P09917).
T2 construct: Human granulocytes are used as a source of 5-lipoxygenase; endogenous in cells; host or cells: human granulocytes isolated from heparinised blood
T2 sequence (P09917 1-674): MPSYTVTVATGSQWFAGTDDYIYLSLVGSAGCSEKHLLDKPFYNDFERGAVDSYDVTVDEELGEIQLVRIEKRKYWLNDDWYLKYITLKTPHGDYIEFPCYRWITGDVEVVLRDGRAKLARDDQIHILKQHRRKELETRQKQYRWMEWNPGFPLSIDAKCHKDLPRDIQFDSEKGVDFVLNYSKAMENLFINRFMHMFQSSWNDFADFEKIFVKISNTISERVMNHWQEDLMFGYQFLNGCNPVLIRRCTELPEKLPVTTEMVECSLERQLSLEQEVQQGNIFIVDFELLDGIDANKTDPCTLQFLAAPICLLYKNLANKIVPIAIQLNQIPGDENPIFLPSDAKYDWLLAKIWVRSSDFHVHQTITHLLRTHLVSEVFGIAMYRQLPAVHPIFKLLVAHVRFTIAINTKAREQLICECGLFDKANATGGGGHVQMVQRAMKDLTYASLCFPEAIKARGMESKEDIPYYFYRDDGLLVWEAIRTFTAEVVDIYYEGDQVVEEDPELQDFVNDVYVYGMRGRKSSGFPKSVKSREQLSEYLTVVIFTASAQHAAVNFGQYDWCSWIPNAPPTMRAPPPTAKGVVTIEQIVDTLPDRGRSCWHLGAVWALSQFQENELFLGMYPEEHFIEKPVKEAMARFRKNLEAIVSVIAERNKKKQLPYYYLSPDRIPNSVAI
As to the kind of experiment: Inhibition of 5-lipoxygenase: LTB4 formation in human granulocytes stimulated with calcium ionophore A 23187, ELISA. The following applies: read-out: IC50 5-LO. Format: cell-based. As for the experimental part:
Test System for Determination of the Inhibition of 5-Lipoxygenase
Human granulocytes are used as a source of 5-lipoxygenase. By means of stimulation with calcium ionophore A 23187, LTB4 (leukotriene B4) is formed from endogenous arachidonic acid. The granulocytes are isolated and the enzyme reaction is carried out according to known processes (see Arch. Pharm. Med. Chem. 330, 307-312 (1997)).
The blood, protected from clotting with heparin, is centrifuged over a discontinuous Percoll® gradient and the granulocyte layer is removed by pipette. After lysis of the erythrocytes, the granulocytes are washed a number of times and then adjusted to a specific cell count. The enzyme reaction is then started in the presence or absence of the test substance after addition of Ca^2+ using calcium ionophore […]. The synthesis of the leukotrienes is stopped after 1.5 minutes. The samples are centrifuged off and the supernatant is diluted. LTB4 is determined quantitatively by means of ELISA.
A general note: ELISA stands for enzyme-linked immunosorbent assay.

Series [2] concerns the target T3, COX2 (from sheep placenta) (Ovis aries, UniProt P79208).
T3 construct: COX2 (from sheep placenta) is preincubated with test substance at 4° C. for 10 min; from tissue; host or cells: sheep placenta
T3 sequence (P79208 17-603): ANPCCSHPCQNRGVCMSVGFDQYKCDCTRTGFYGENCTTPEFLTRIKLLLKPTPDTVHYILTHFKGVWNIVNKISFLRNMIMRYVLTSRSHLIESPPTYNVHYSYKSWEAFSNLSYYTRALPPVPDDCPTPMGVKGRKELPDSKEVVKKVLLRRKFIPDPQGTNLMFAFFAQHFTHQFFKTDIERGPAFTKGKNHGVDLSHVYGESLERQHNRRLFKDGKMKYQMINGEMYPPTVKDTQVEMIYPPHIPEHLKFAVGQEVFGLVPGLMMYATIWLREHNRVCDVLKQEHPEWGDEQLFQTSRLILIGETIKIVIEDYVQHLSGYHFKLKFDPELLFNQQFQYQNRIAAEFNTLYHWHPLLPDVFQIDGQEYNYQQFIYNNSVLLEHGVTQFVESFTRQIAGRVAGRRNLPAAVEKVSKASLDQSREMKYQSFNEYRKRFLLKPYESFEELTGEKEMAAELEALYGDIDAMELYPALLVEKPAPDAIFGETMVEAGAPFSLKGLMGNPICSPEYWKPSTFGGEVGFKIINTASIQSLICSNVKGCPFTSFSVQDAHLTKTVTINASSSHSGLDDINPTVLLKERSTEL
The series can be described thus: Inhibition of cyclooxygenase-2: COX2 stimulated with arachidonic acid, PGE2 by ELISA. It is filed as biochemical. The following applies: arachidonic acid 5 μM, read-out: IC50 COX-2. The method, then: Test System for Determination of the Inhibition of Cyclooxygenase-2
COX2 (from sheep placenta) is preincubated with test substance at 4° C. for 10 min, then stimulated with arachidonic acid (5 μM) at 25° C. for 10 min. […] The determination is carried out at 3 dilutions (10^−7, 10^−6, 10^−5 M), and the PGE2 concentrations are quantified by means of ELISA (see Mitchell, J. A. et al. Proc. Nat. Acad. Sci 90: 11693-11697 (1993)).

pIC50: −log10 of the molar value. Like-named read-outs stand apart in the source and are kept apart here.

T1 sequence (P23219 24-599): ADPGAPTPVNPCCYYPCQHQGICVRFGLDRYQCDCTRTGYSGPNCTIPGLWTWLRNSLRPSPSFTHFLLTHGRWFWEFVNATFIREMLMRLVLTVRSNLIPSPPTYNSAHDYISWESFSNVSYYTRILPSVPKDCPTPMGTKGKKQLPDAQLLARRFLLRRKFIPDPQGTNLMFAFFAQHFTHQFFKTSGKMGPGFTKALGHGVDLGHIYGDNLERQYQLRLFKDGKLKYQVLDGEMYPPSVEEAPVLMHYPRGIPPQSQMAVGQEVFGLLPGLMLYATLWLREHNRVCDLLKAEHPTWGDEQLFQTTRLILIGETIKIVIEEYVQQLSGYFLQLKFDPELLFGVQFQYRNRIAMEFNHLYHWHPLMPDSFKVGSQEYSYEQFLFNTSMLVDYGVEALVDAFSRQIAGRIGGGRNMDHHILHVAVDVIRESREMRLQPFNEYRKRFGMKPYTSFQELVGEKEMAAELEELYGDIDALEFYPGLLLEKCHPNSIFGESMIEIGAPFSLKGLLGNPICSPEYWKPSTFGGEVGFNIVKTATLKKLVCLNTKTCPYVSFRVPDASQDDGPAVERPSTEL

Consider `CC1(C)Cn2cc(-c3ccc(Cl)cc3)c(-c3ccccc3)c2C1=O` [Example 6, 6-(4-Chlorophenyl)-2,3-dihydro-2,2-dimethyl-1-oxo-7-phenyl-1H-pyrrolizine], for which the chromatographic logP came out at 5 in series [1] (pH 2.5, read-out: Log P pH 2.5) and 5.1 in series [1] (pH 7.5, read-out: Log P pH 7.5). For the same molecule, the values for the pIC50 on Cyclooxygenase-1 and at 5-lipoxygenase were 6.02 and 6.64, respectively.
`CCOC(=O)C(=O)c1c(-c2ccc(Cl)cc2)c(-c2ccccc2)c2n1CC(C)(C)C2O` (centres unmarked) [Example 11, Ethyl 6-(4-Chlorophenyl)-2,3-dihydro-1-hydroxy-2,2-dimethyl-7-phenyl-1H-pyrrolizin-5-yl-2-oxoacetate]: the melting point (in general, the temperature of the solid-liquid transition) was 193 °C.
In the case of `COC1c2c(-c3ccccc3)c(-c3ccc(Cl)cc3)c(CC(=O)O)n2CC1(C)C` (centres unmarked) [Example 14, 6-(4-Chlorophenyl)-2,3-dihydro-1-methoxy-2,2-dimethyl-7-phenyl-1H-pyrrolizin-5-ylacetic Acid], the chromatographic logP in series [1] (pH 2.5, read-out: Log P pH 2.5) was found to be 4.5; in series [1] (pH 7.5, read-out: Log P pH 7.5), 1.7. On Cyclooxygenase-1, the pIC50 – broadly, the IC50 on a negative log10 scale, so that one unit is a factor of ten – was 7.22.
`Cc1c(-c2ccc(Cl)cc2)c(-c2ccccc2)c2n1CC(C)(C)C2O` (centres unmarked) [Example 15, 6-(4-Chlorophenyl)-2,3-dihydro-1-hydroxy-2,2,5-trimethyl-7-phenyl-1H-pyrrolizine] gave a melting point of 133 °C.
In the case of `COC1c2c(-c3ccccc3)c(-c3ccc(Cl)cc3)c(C)n2CC1(C)C` (centres unmarked) [Example 16, 6-(4-Chlorophenyl)-2,3-dihydro-1-methoxy-2,2,5-trimethyl-7-phenyl-1H-pyrrolizine], the chromatographic logP in series [1] (pH 2.5, read-out: Log P pH 2.5) turned out to be 5.1; in series [1] (pH 7.5, read-out: Log P pH 7.5), 6.7. Also, the pIC50 at Cyclooxygenase-1 was 6.30; in series [2], 5.12.
Taken in the same sequence, the figures for `CC1(C)Cn2c(CC(=O)O)c(-c3ccc(Cl)cc3)c(-c3ccccc3)c2C1=O` [Example 18, 6-(4-Chlorophenyl)-2,3-dihydro-2,2-dimethyl-1-oxo-7-phenyl-1H-pyrrolizin-5-ylacetic Acid] were 3.3, 1.1, 7.34 and 5.68.
As to `CC1(C)Cc2c(-c3ccccc3)c(-c3ccc(Cl)cc3)c(OC(=O)c3ccccc3)n2C1` [Example 26, 2-(4-Chlorophenyl)-6,6-dimethyl-1-phenyl-6,7-dihydro-5H-pyrrolizin-3-yl Benzoate], the melting point amounted to 193 °C.
Turning to `CC1(C)Cc2c(-c3ccccc3)c(-c3ccc(Cl)cc3)c(CC(=O)O)n2C1` [ML 3000, reference compound], the chromatographic logP is 4.8 in series [1] (pH 2.5, read-out: Log P pH 2.5) and 1.9 in series [1] (pH 7.5, read-out: Log P pH 7.5). The results for the negative-log IC50 (pIC50) (on Cyclooxygenase-1; at 5-lipoxygenase; in series [2]) were 6.68, 6.74 and 5.33, respectively.
